# From patent publication US3997518A, “2-Alkyl-4-carboxyalkyl-5-(3,3'-dimethyltriazeno)-imidazoles” (Beecham Group Limited, priority 1970, dated 1976)
# Legend:
# R1 lymphoma [1] = experiment: Activity against R1 lymphoma, increase in survival time (Table A); assay type: in vivo, mice; conditions: Mus musculus, ip, read-out: Medium % increase in survival time; for ILS at 64 mg/kg: 64 mg/kg i.p. daily day 3 to day 7; for ILS at 32 mg/kg: 32 mg/kg i.p. daily day 3 to day 7; for ILS at 128 mg/kg: 128 mg/kg i.p. daily day 3 to day 7; for ILS at 33 mg/kg: 33 mg/kg i.p. daily day 3 to day 7
# Protocol: (§1) The R1 lymphoma is normally sensitive to anti-metabolites. Typically mice having a transplant of 1.5 × 10^6 tumour cells die from the metastisizing tumour on day 9, 10 or 11 after transplant.
# (§2) The compounds illustrated below were dosed by the intra peritoneal route in a vehicle of 10% acetone in arachas oil daily from day 3 to day 7 after tumour transplant. The increase in survival time over control was measured.
# (§3) The dose reported is that dose which gave the maximum increase in survival time. Lower doses gave less activity and higher doses are toxic.
# (§4) The results are split into two sections (in Table A and Table B) because two slightly different strains of R1 lymphoma were used.
# R1 lymphoma [2] = experiment: Activity against R1 lymphoma, increase in survival time (Table B, slightly different strain); assay type: in vivo, mice; conditions: for ILS at 33 mg/kg: 33 mg/kg i.p. daily day 3 to day 7; for ILS at 128 mg/kg: 128 mg/kg i.p. daily day 3 to day 7
# Protocol: as §1, §2, §3, §4
# [3] = tested on: ADJ/PC6 plasma cell tumour; experiment: ADJ/PC6 plasma cell tumour, inhibition of tumour weight; assay type: in vivo, mice; conditions: i.p. dosing × 5; for ED90: Mus musculus, ADJ/PC6, ip, read-out: ID90 (the source's name); for Therapeutic Index: LD50 compared with ID90
# Excerpt: (§5) The breadth of antitumour spectrum of the compounds of the invention in mice is illustrated by their activity in the ADJ/PC6 plasma cell tumour. This is a solid tumour sensitive to most alkylating agents. Good activity is rarely seen against this tumour and the R1 lymphoma.
# [4] = Dose at which 50% of the animals were killed (LD50); set-up: species or system mice; conditions: mouse, in vivo, ip; i.p. dosing × 5
# Excerpt: as §5
# PC 6 tumour = PC 6 tumour screen; assay type: in vivo, mice
# Excerpt: as §5
# The test of example 91 was repeated using the PC 6 tumour screen.
# Friend leukaemia virus = experiment: Friend Leukaemia, inhibition of splenomegally; assay type: in vivo, mice; conditions: sub-cutaneously 250 mg/kg/day on day -1, +1, +2 and +3 with respect to infection
# Excerpt: Activity of these compounds has also been shown in Friend Leukaemia. Friend leukaemia virus is a prolonged infection in mice produced splenomegally.
# Staphylococus aureus = experiment: Antibacterial activity, MIC; assay type: cell-based; conditions: DST agar + 5% lysed horse blood
# Excerpt: (§6) Compounds of this invention have shown antibacterial activity. Thus the minimum inhibitory concentration (M.I.C.) of 4-carboxyethyl-5-(3,3-dimethyltriazeno)-2-phenylimidazole and the corresponding 2-methylimidazole in DST agar + 5% lysed horse blood are illustrated against the following bacteria.
# [5] = tested on: Streptococus heamolyticus; experiment: Antibacterial activity, MIC; assay type: cell-based; conditions: DST agar + 5% lysed horse blood
# Excerpt: as §6
# Candida albicans = experiment: Antifungal activity, minimum inhibitory concentration; assay type: cell-based
# Excerpt: (§7) Antifungal activity has been found in compounds of this invention. Thus 4-carboxyethyl-5-(3,3-dimethyltriazeno)-2-phenylimidazole has the following minimum inhibitory concentrations.
# Candida neoformans = experiment: as above; assay type: cell-based
# Excerpt: as §7
# [6] = tested on: Trychopyton mentagrophytes; experiment: as above; assay type: cell-based
# Excerpt: as §7
# E. Coli = experiment: Antibacterial activity, MIC; assay type: cell-based; conditions: Escherichia coli; DST agar + 5% lysed horse blood
# Excerpt: as §6
# Proteus mirabilis = experiment: Antibacterial activity, MIC; assay type: cell-based; conditions: DST agar + 5% lysed horse blood
# Excerpt: as §6
# Pseudomonas aeroginosa = experiment: Antibacterial activity, MIC; assay type: cell-based; conditions: DST agar + 5% lysed horse blood
# Excerpt: as §6
# [7] = Skibba et al., Biochemical Pharmacology, 19, 2043 (1970); cited from earlier work
# [8] = Table A strain, dose of maximum increase
# [9] = Mus musculus, ip, Table B strain, dose of maximum increase, read-out: Medium % increase in survival time
# [10] = dose at which 90% inhibition of tumour weight occurs
# [11] = Mus musculus, ip, Table B strain, 32 mg/kg i.p. daily day 3 to day 7, dose of maximum increase, read-out: Medium % increase in survival time
smiles,measurement,setting,value
COC(=O)c1nc(-c2ccccc2)[nH]c1N=NN(C)C,ILS at 16 mg/kg,"R1 lymphoma [1]; Table A strain, 16 mg/kg i.p. daily day 3 to day 7, dose of maximum increase",400%
"CCOC(=O)c1nc(Cc2ccccc2)[nH]c1N=NN(C)C [4-Carbethoxy-5-(3,3-di-methyl-triazeno)-2-benzyl imidazole]",ILS at 64 mg/kg,R1 lymphoma [1]; [8],200%
"CCOC(=O)c1nc(-c2ccccc2)[nH]c1N=NN(C)C [4-Carbethoxy-5-(3,3-dimethyl-triazeno)-2-phenyl imidazole]",ILS at 32 mg/kg,R1 lymphoma [1]; [8],300%
same,ILS at 33 mg/kg,R1 lymphoma [2]; [9],65%
same,ED90,[3]; [10],3.5 mg/kg
same,Therapeutic Index,[3],88
same,LD50,[4],310 mg/kg
same,Therapeutic Index,PC 6 tumour; i.p. dosing,27
same,Therapeutic Index,PC 6 tumour; oral dosing,11
same,inhibition of the splenomegally,Friend leukaemia virus,complete inhibition of the splenomegally
same,MIC,Staphylococus aureus,10 µg/mL
same,MIC,[5],1 µg/mL
same,MIC,Candida albicans,10 µg/mL
same,MIC,Candida neoformans,10 to 50 µg/mL
same,MIC,[6],10 µg/mL
"CCOC(=O)c1nc(-c2cccnc2)[nH]c1N=NN(C)C [4-Carbethoxy-5-(3,3-dimethyltriazeno)-2-(3-pyridyl)imidazole]",ILS at 32 mg/kg,R1 lymphoma [1]; [8],170%
"CCOC(=O)c1nc(-c2ccc(F)cc2)[nH]c1N=NN(C)C [4-Carbethoxy-5-(3,3-dimethyltriazeno)-2-(p-fluorophenyl) imidazole]",ED90,[3]; [10],20 mg/kg
same,Therapeutic Index,[3],10
same,LD50,[4],200 mg/kg
"CCOC(=O)Cc1nc(C(=O)OCC)c(N=NN(C)C)[nH]1 [4-Carbethoxy-5-(3,3-dimethyltriazeno)-2-carbethoxymethyl imidazole]",ILS at 64 mg/kg,R1 lymphoma [1]; [8],400%
"CCOC(=O)c1nc(C2CCCCC2)[nH]c1N=NN(C)C [4-Carbethoxy-5-(3,3-dimethyltriazeno)-2-cyclohexyl imidazole]",ILS at 21 mg/kg,"R1 lymphoma [2]; Mus musculus, ip, Table B strain, 21 mg/kg i.p. daily day 3 to day 7, dose of maximum increase, read-out: Medium % increase in survival time",85%
"CCOC(=O)c1nc(N(C)C)[nH]c1N=NN(C)C [4-Carbethoxy-5-(3,3-dimethyltriazeno)-2-dimethylamino imidazole]",ILS at 16 mg/kg,"R1 lymphoma [2]; Mus musculus, ip, Table B strain, 16 mg/kg i.p. daily day 3 to day 7, dose of maximum increase, read-out: Medium % increase in survival time",45%
"CCOC(=O)c1nc(CC)[nH]c1N=NN(C)C [4-Carbethoxy-5-(3,3-dimethyltriazeno)-2-ethyl imidazole]",ILS at 32 mg/kg,R1 lymphoma [2]; [11],70%
"CCOC(=O)c1nc(S)[nH]c1N=NN(C)C [4-Carbethoxy-5-(3,3-dimethyltriazeno)-2-mercapto imidazole]",ILS at 128 mg/kg,R1 lymphoma [2]; [9],140%
"CCOC(=O)c1nc(C)[nH]c1N=NN(C)C [4-Carbethoxy-5-(3,3-dimethyltriazeno)-2-methylimidazole]",ILS at 32 mg/kg,R1 lymphoma [2]; [11],90%
same,Therapeutic Index,PC 6 tumour; i.p. dosing,47
same,Therapeutic Index,PC 6 tumour; oral dosing,40
same,MIC,E. Coli,15 µg/mL
same,MIC,Proteus mirabilis,15 µg/mL
same,MIC,Pseudomonas aeroginosa,62 µg/mL
same,MIC,Staphylococus aureus,7.5 µg/mL
"CCCc1nc(C(=O)OCC)c(N=NN(C)C)[nH]1 [4-Carbethoxy-5-(3,3-dimethyltriazeno)-2-n propyl imidazole]",ILS at 32 mg/kg,R1 lymphoma [2]; [11],130%
"CCOC(=O)c1nc(COc2ccc(OC)cc2)[nH]c1N=NN(C)C [4-Carbethoxy-5-(3,3-dimethyltriazeno)-2-p-methoxy-phenoxymethylimidazole]",ILS at 64 mg/kg,R1 lymphoma [1]; [8],> 150%
"CCOC(=O)c1nc(COc2ccccc2)[nH]c1N=NN(C)C [4-Carbethoxy-5-(3,3-dimethyltriazeno)-2-phenoxymethyl imidazole]",ILS at 64 mg/kg,R1 lymphoma [1]; [8],85%
"CCOC(=O)c1nc(C)n(C)c1N=NN(C)C [4-Carbethoxy-5-(3,3-dimethyltriazeno-1-2 dimethylimidazole]",Medium % increase in survival time,"R1 lymphoma [2]; Table B strain, 32 mg/kg i.p. daily day 3 to day 7, dose of maximum increase",65%
"COC(=O)c1nc(S)[nH]c1N=NN(C)C [4-Carbmethoxy-5-(3,3-dimethyltriazeno)-2-mercapto imidazole]",ILS at 32 mg/kg,R1 lymphoma [2]; [11],90%
"CN(C)N=Nc1[nH]c(-c2cccs2)nc1C(N)=O [4-Carboxamido-5-(3,3-dimethyltriazeno)-2-(2-thienyl)imidazole]",ILS at 128 mg/kg,R1 lymphoma [1]; [8],50%
"Cc1nc(C(N)=O)c(N=NN(C)C)[nH]1 [4-Carboxamido-5-(3,3-dimethyltriazeno)-2-methyl imidazole]",ILS at 128 mg/kg,R1 lymphoma [2]; [9],60%
"CN(C)N=Nc1[nH]c(-c2ccccc2)nc1C(N)=O [4-Carboxamido-5-(3,3-dimethyltriazeno)-2-phenylimidazole]",ILS at 50 mg/kg,"R1 lymphoma [1]; Table A strain, 50 mg/kg i.p. daily day 3 to day 7, dose of maximum increase",80%
same,ED90,[3]; [10],16 mg/kg
same,Therapeutic Index,[3],15
same,LD50,[4],240 mg/kg
"CCOC(=O)c1nc(-c2ccccc2F)[nH]c1N=NN(C)C [4-Carboxyethyl-5-(3,3-dimethyltriazeno)-2-(2-fluorophenyl) imidazole]",ILS at 10 mg/kg,"R1 lymphoma [1]; Table A strain, 10 mg/kg i.p. daily day 3 to day 7, dose of maximum increase",100%
"CCOC(=O)c1nc(-c2ccc3ccccc3c2)[nH]c1N=NN(C)C [4-Carboxyethyl-5-(3,3-dimethyltriazeno)-2-(2-naphthyl) imidazole]",ILS at 128 mg/kg,R1 lymphoma [1]; [8],170%
"CCOC(=O)c1nc(-c2ccc(OC)c(OC)c2)[nH]c1N=NN(C)C [4-Carboxyethyl-5-(3,3-dimethyltriazeno)-2-(3,4-dimethoxy-phenyl) imidazole]",ILS at 33 mg/kg,R1 lymphoma [1]; [8],200%
"CCOC(=O)c1nc(-c2cccc(C)c2)[nH]c1N=NN(C)C [4-Carboxyethyl-5-(3,3-dimethyltriazeno)-2-(3-methyl-phenyl) imidazole]",ILS at 128 mg/kg,R1 lymphoma [1]; [8],150%
"CCOC(=O)c1nc(-c2ccsc2)[nH]c1N=NN(C)C [4-Carboxyethyl-5-(3,3-dimethyltriazeno)-2-(3-thienyl) imidazole]",ILS at 33 mg/kg,R1 lymphoma [1]; [8],200%
"CCOC(=O)c1nc(-c2ccc(OC)cc2)[nH]c1N=NN(C)C [4-Carboxyethyl-5-(3,3-dimethyltriazeno)-2-(4-methoxyphenyl) imidazole]",ILS at 33 mg/kg,R1 lymphoma [1]; [8],50%
CCOC(=O)c1nc(-c2ccc(Cl)cc2)[nH]c1N=NN(C)Cc1ccccc1 [4-Carboxyethyl-5-(3-methyl-3-benzyltriazeno)-2-(4-chlorophenyl)imidazole],ILS at 100 mg/kg,"R1 lymphoma [1]; Table A strain, 100 mg/kg i.p. daily day 3 to day 7, dose of maximum increase",40%
"CN(C)N=Nc1[nH]cnc1C(N)=O [DIC, 4-Carboxamide-5-(3,3-dimethyltriazeno)imidazole, reference compound]",ILS at 32 mg/kg,R1 lymphoma [1]; [8],300%
same,ILS at 33 mg/kg,R1 lymphoma [2]; [9],60%
same,Therapeutic Index,PC 6 tumour; i.p. dosing,33
same,Therapeutic Index,PC 6 tumour; oral dosing,24
same,degradation in man,[7],degraded substantially to AIC
"CN(Cc1cnc2nc(N)nc(N)c2n1)c1ccc(C(=O)N[C@@H](CCC(=O)O)C(=O)O)cc1 [Methotrexate, 4-amino-10-methyl folic acid, reference compound]",ILS at 2 mg/kg,R1 lymphoma [1],100%
same,ILS at 2 mg/kg,"R1 lymphoma [2]; Mus musculus, ip, read-out: Medium % increase in survival time",60%
same,ID90,[3]; [10],Inactive
